The values below come from patent US11376228B2 (Genifarm Laboratories Inc, priority 2018, dated 2022).

Assay [1] deals with human prostate cancer cells PC3. The assay can be described thus: MTT assay, proliferation of human prostate cancer cells PC3. Conditions: for IC50: Homo sapiens, PC3, MTT, 48 h, 0-32 μM, read-out: IC50 on the proliferation of human prostate cancer cells PC3; for inhibitory effects on human prostate cancer cells PC3 (in words): PC3, summary of Table 4; for effect compared with control gossypol I-A9, PC3: PC3, versus gossypol I-A9. The class given is cell-based.

The subject of assay [2] is human gastric cancer cells MKN45. The assay can be described thus: MTT assay, proliferation of human gastric cancer cells MKN45. The class given is cell-based. Conditions: for IC50: Homo sapiens, MKN-45, MKN45, MTT, 48 h, 0-60 μM, read-out: IC50 on the proliferation of human gastric cancer cells MKN45; for inhibitory effects on human gastric cancer cells MKN45 (in words): MKN45, summary of Table 1; for effect compared with control gossypol I-A9, MKN45: MKN45, versus gossypol I-A9. On the procedure:
The original culture medium for human gastric cancer cells MKN45 was removed, and human gastric cancer cells MKN45 were rinsed with 2 mL of phosphate buffer saline (PBS), digested with 0.5 mL of pancreatic enzyme for 3 min. 2 mL of culture medium was added to the cells and the mixture was transferred to a centrifuge tube. The mixture was centrifuged (200 g) for 5 min. The supernatant was removed. 2 mL of culture medium was sprayed five times to the remaining solution. 0.5 mL of cell suspension was transferred to an Eppendorf (EP) tube and the cells were counted. The cells were cultured on a 96-well plate, each well having 2000 cells, 3 wells for each compound. The numbers of the required cells and wells and the amount of culture medium were calculated. The cells were diluted by the culture medium. 100 μL culture medium was added to each well and were evenly dispersed, each well containing 2000 cells. The cells were transferred to the wells using a pipette, and cultured in an incubator.
(2) Adding Compounds to Culture Medium
The original culture medium was discarded, and the mother liquor of each compound was diluted to final concentrations of 0, 5, 15, 30, 45 and 60 μM, respectively. Each diluent was uniformized. To each head of a multichannel pipette, 100 μL of the diluent was introduced. Three heads were employed. The diluents were added to 3 marked wells (the cells were undamaged) of a tilted 96-well plate, respectively. Different concentrations of diluents were added to three different marked wells and evenly mixed by alternately sucking and blowing with the multichannel pipette 3 times. The 96-well plate was shaken slightly twice, and cultured in a CO2 incubator.
The cells were cultured in different compounds for 48 h and were then detected. Specifically, a clean bench was turned on for 15 min, and phosphate buffer saline (PBS) was pre-heated in a warm water bath for 15 min. MTT was taken out of a refrigerator at −20 degrees, protected from light and thawed (MTT stock solution was 5 mg/mL). MTT and a culture medium were mixed evenly in a V-shaped groove to yield a mixture comprising 500 μg/mL MTT and a culture medium (a volume ratio thereof being 1:10). 100 μL of the prepared MTT mixture was added to each well of the 96-well plate using the multichannel pipette, and then incubated at 37° C. for an appropriate time (1 h), thereby reducing the MTT to formazan (purple crystals formed in the cells under a microscope, which were different in medicated cells and unmedicated cells). The upper liquid was removed with a white pipette tip attached to a vacuum pump. For each concentration of the compounds, 3 pipette tips were employed. After the incubation, the MTT mixture was discarded, and then 100 μL of DMSO was added to each well using the multichannel pipette. The 96-well plate was shaken in a shaker for 10 min (until the purple crystals were dissolved in the cells under the microscope).
The absorbance value of the cells was measured at a wavelength of 550 nm with a microplate reader. The survival rate of the cells treated with different concentrations of compounds was calculated to make a scatter plot. The IC50 results of each compound on the proliferation of human gastric cancer cells MKN45 were shown in Table 1, where Gossypol I-A9 is a control sample.
Background: Tetrazolium dyes change colour on reduction, which living cells bring about.

For `Cc1c(O)c(O)c(C=O)c2c1C(c1ccc(C(F)(F)F)cc1)CC2` (centres unmarked) [Compound I-5], in assay [1], the IC50 stood at 7.09 µM; the “inhibitory effects on human prostate cancer cells PC3 (in words)” value is on record as “significant inhibitory effects”; the “effect compared with control gossypol I-A9, PC3” value is listed as “superior than the gossypol I-A9”.

Regarding `Cc1cc(COCc2ccccc2)c(C=O)c(O)c1O` [Compound I-21, 6-((benzyloxy)methyl)-2,3-dihydroxy-4-methylbenzaldehyde], in assay [1], the IC50 turned out to be 8.09 µM; the “inhibitory effects on human prostate cancer cells PC3 (in words)” value is on record as “significant inhibitory effects”; the “effect compared with control gossypol I-A9, PC3” value was “superior than the gossypol I-A9”.

Take `Cc1c(O)c(O)c(C=O)c(CC=C(c2ccccc2)c2ccccc2)c1-c1ccccc1` [Compound I-24]: in assay [1], the IC50 is 7.24 µM; the “inhibitory effects on human prostate cancer cells PC3 (in words)” value is listed as “significant inhibitory effects”; the “effect compared with control gossypol I-A9, PC3” value is “superior than the gossypol I-A9”.

Regarding `Cc1c(O)c(O)c(C=O)c(COCc2ccccc2)c1-c1ccccc1` [Compound I-25], in assay [1], the IC50 came to 8.32 µM; the “inhibitory effects on human prostate cancer cells PC3 (in words)” value is given as “significant inhibitory effects”; the “effect compared with control gossypol I-A9, PC3” value was “superior than the gossypol I-A9”.

Regarding `Cc1c(O)c(O)c(C=O)c(COCc2ccccc2)c1-c1ccc(F)cc1` [Compound I-26], in assay [2], the IC50 came out at 16.8 µM and the “inhibitory effects on human gastric cancer cells MKN45 (in words)” value is “significant inhibitory effects”. Further, in assay [1], the IC50 turned out to be 10.1 µM and the “inhibitory effects on human prostate cancer cells PC3 (in words)” value is “significant inhibitory effects”.

On to `CCc1cc(COCc2ccccc2)c(C=O)c(O)c1O` [Compound I-31], for which, in assay [1], the IC50 stood at 7.25 µM; the “inhibitory effects on human prostate cancer cells PC3 (in words)” value is “significant inhibitory effects”; the “effect compared with control gossypol I-A9, PC3” value is “superior than the gossypol I-A9”.

Take `Cc1c(C)c(COCc2ccccc2)c(C=O)c(O)c1O` [Compound I-39]: in assay [2], the IC50 is 6.62 µM; the “inhibitory effects on human gastric cancer cells MKN45 (in words)” value is listed as “significant inhibitory effects”; the “effect compared with control gossypol I-A9, MKN45” value is reported as “better than the control gossypol I-A9”.

Consider `COc1cc(OC)c(Cc2c(C=O)c(O)c(O)c(C)c2-c2ccc(Br)cc2)c(OC)c1` [Compound I-41], for which, in assay [1], the IC50 worked out at 1.76 µM; the “inhibitory effects on human prostate cancer cells PC3 (in words)” value is “significant inhibitory effects”; the “effect compared with control gossypol I-A9, PC3” value is recorded as “superior than the gossypol I-A9”.

In the case of `COc1cc(OC)c(Cc2c(C=O)c(O)c(O)c(C)c2-c2ccc([N+](=O)[O-])cc2)c(OC)c1` [Compound I-42, 4,5-dihydroxy-6-methyl-4′-nitro-2-(2,4,6-trimethoxybenzyl)-(1,1′-biphenyl)-3-carbaldehyde], in assay [1], the IC50 stood at 2.8 µM; the “inhibitory effects on human prostate cancer cells PC3 (in words)” value is reported as “significant inhibitory effects”; the “effect compared with control gossypol I-A9, PC3” value is reported as “superior than the gossypol I-A9”.

Turning to `CCc1c(O)c(O)c(C=O)c(Cc2c(OC)cc(OC)cc2OC)c1-c1ccccc1` [Compound I-44], in assay [1], the IC50 is 2.91 µM; the “inhibitory effects on human prostate cancer cells PC3 (in words)” value is “significant inhibitory effects”; the “effect compared with control gossypol I-A9, PC3” value is “superior than the gossypol I-A9”.

For the compound `Cc1c(O)c(O)c(C=O)c(COCc2ccccc2)c1-c1ccc(C(C)(C)C)cc1` [Compound I-46], in assay [1], the IC50 turned out to be 6.41 µM; the “inhibitory effects on human prostate cancer cells PC3 (in words)” value is “significant inhibitory effects”; the “effect compared with control gossypol I-A9, PC3” value is reported as “superior than the gossypol I-A9”.

In the case of `Cc1c(O)c(O)c(C=O)c(COCc2ccccc2)c1-c1cccc2ccccc12` [Compound I-47], in assay [1], the IC50 was 8.12 µM; the “inhibitory effects on human prostate cancer cells PC3 (in words)” value was “significant inhibitory effects”; the “effect compared with control gossypol I-A9, PC3” value is given as “superior than the gossypol I-A9”.

Regarding `Cc1c(O)c(O)c(C=O)c(COCc2ccccc2)c1-c1ccsc1` [Compound I-48], in assay [1], the IC50 was determined as 22.4 µM and the “inhibitory effects on human prostate cancer cells PC3 (in words)” value is given as “significant inhibitory effects”.

`CC(C)c1c(O)c(O)c(C=O)c2c1C(c1ccccc1)CC2` (centres unmarked) [Compound I-50, 5,6-dihydroxy-7-isopropyl-1-phenyl-2,3-dihydro-1H-indene-4-carbaldehyde]: in assay [2], the IC50 came to 12.3 µM; the “inhibitory effects on human gastric cancer cells MKN45 (in words)” value is listed as “significant inhibitory effects”; the “effect compared with control gossypol I-A9, MKN45” value is “better than the control gossypol I-A9”. In addition, in assay [1], the IC50 is 2.88 µM; the “inhibitory effects on human prostate cancer cells PC3 (in words)” value is reported as “significant inhibitory effects”; the “effect compared with control gossypol I-A9, PC3” value is “superior than the gossypol I-A9”.

In the case of `COc1cc(OC)c(Cc2cc(C(C)C)c(O)c(O)c2C=O)c(OC)c1` [Compound I-51], in assay [1], the IC50 stood at 5.27 µM; the “inhibitory effects on human prostate cancer cells PC3 (in words)” value is “significant inhibitory effects”; the “effect compared with control gossypol I-A9, PC3” value is reported as “superior than the gossypol I-A9”.

Take `CC(C)c1cc(COCc2ccccc2)c(C=O)c(O)c1O` [Compound I-53]: in assay [1], the IC50 amounted to 6.65 µM; the “inhibitory effects on human prostate cancer cells PC3 (in words)” value was “significant inhibitory effects”; the “effect compared with control gossypol I-A9, PC3” value is given as “superior than the gossypol I-A9”.

For `CC(C)c1c(O)c(O)c(C=O)c(COCc2ccccc2)c1-c1ccccc1` [Compound I-55], in assay [1], the IC50 is 2.05 µM; the “inhibitory effects on human prostate cancer cells PC3 (in words)” value is reported as “significant inhibitory effects”; the “effect compared with control gossypol I-A9, PC3” value is recorded as “superior than the gossypol I-A9”.

For `Cc1cc(COCc2ccccc2)c(CO)c(O)c1O` [Compound I-96], the “inhibitory effects on human gastric cancer cells MKN45 (in words)” value in assay [2] was “significant inhibitory effects”.

`COC(=O)c1c(COCc2ccc(OC)cc2)cc(C)c(OC)c1OC` [Compound I-100]: the “inhibitory effects on human prostate cancer cells PC3 (in words)” value in assay [1] is “significant inhibitory effects”.

Turning to `COc1cc(OC)c(Cc2c(C=O)c(O)c(O)c(C)c2-c2ccco2)c(OC)c1` [I-A6, 3-(furan-2-yl)-5,6-dihydroxy-4-methyl-2-(2,4,6-trimethoxybenzyl) benzaldehyde], in assay [1], the IC50 came to 3.45 µM; the “inhibitory effects on human prostate cancer cells PC3 (in words)” value is “significant inhibitory effects”; the “effect compared with control gossypol I-A9, PC3” value is on record as “superior than the gossypol I-A9”.

In the case of `Cc1c(O)c(O)c(C=O)c(COCc2ccccc2)c1Br` [I-A8, 2-((benzyloxy)methyl)-3-bromo-5,6-dihydroxy-4-methylbenzaldehyde], in assay [1], the IC50 was found to be 2.37 µM; the “inhibitory effects on human prostate cancer cells PC3 (in words)” value is given as “significant inhibitory effects”; the “effect compared with control gossypol I-A9, PC3” value is “superior than the gossypol I-A9”.
